Measurements: patent US6743413B1, “Suspension aerosol formulations” (3M Company, priority 1991, dated 2004)
“And” between values parts separate entries of the source, which are not always exact repeats. Equal values may be shown once.

Assays:
Assay type in all cases: physicochemical
[1] = Visual observation of suspension aerosol formulations (dispersion, flocculation, settling, creaming, suitability for metered dose inhaler); conditions: Example 3: 1:1 (W/W) HFC 134a/HFC 227 versus corresponding formulations in HFC 134a alone
Procedure: (§1) For each of the micronized drug substances A-G set forth below, formulations were prepared at drug concentrations of 0.017 percent, 0.039 percent, 0.083 percent, 0.41 percent, and 1.6 percent by weight based on the total weight of the formulation (corresponding to 0.20 mg/mL, 0.50 mg/mL, 1.0 mg/mL, 5.0 mg/Ml, and 20 mg/mL, respectively). The formulations were prepared by dispersing micronized drug in HFC 134a in a sealed 15 mL clear PET vial using ultrasonic energy.
For each propellant mix the range of drug concentrations used in Example 1 was used.
BDP formulations were prepared at 0.070 percent by weight (1.0 mg/mL) in HFC 227 and at 0.38 percent by weight (5.0 mg/mL) in a 1:1 mixture of HFC 227 and HFC 134a.
Formulations of salmeterol free base at 0.02 percent by weight and 0.05 percent by weight were prepared in HFC 134a and in HFC 227 by placing the drug and 5 mL of glass beads into a 15 mL glass vial, crimping on a continuous valve, and adding the appropriate amount of propellant. The formulations were shaken on a paint shaker for 10 min in order to disperse the drug.
The vial was then shaken on a paint shaker, chilled, and the contents transferred to 10 mL vials fitted with the metered dose valve. […] Valve delivery was measured through the life of the formulations.

[2] = Twin stage impinger deposition of emitted dose; conditions: Example 7: 0.02 percent by weight in HFC 134a
Description: Glass impinger apparatus A (BP198 Appendix XV11C) is used. To determine the deposition of the emitted dose, the apparatus is assembled as described. The oral adapter is attached to the throatpiece of the apparatus, and a suitable pump is connected to the outlet of the apparatus. The air flow through the apparatus is 60 ±5 liters per minute measured at the inlet of the throat. […] Ten shots are then fired via the adapter into the apparatus from the canister.
The apparatus is then dismantled and each stage washed with the appropriate amount of methanol. The washings are assayed by HPLC to give the content of the drug found at each stage and also the material balance.

[3] = Visual assessment of suspension formulations by time lapse photography 10 and 30 seconds after agitation; parameters: key: + = visually acceptable formulation; − = visually unacceptable formulation; ? = border line acceptable formulation
Procedure: as §1
Using time lapse photography 10 and 30 seconds after agitation the formulations were assessed as follows: […]
The formulations were photographed using time lapse photography at 10 and 30 seconds post agitation and were assessed as follows: […]

[4] = as above; parameters: key: + = visually acceptable formulation; − = visually unacceptable formulation; ? = border line acceptable formulation; conditions: 10 and 30 seconds post agitation
[5] = Suspension aerosol particle size analysis (Malvern Mastersizer, laser diffraction); conditions: Example 7: 0.02 percent by weight in HFC 134a
Procedure: The particle size distribution of drug in the aerosol suspension is assayed by Malvern Mastersizer™ Particle Size Analyser using a suspending medium of 0.01 percent sorbitan trioleate in heptane.
Using a primed connector, shots are fired via an injection adapter into the Malvern sample cell containing the suspending medium. When a suitable level of obscuration (in the range 8.5-9) is achieved, analysis by laser diffraction is then performed.
The results below show the percentage by weight of particles having particle size below 10.7 μm, below 5.07 μm, and below 1.95 μm. The “Initial” entries represent the average of three independent determinations, and the “25° C.”, “CYC”, and “HHC” entries represent a single determination after one month under the indicated storage conditions.

[6] = 1 Month CYC (cycled between 15° C. and 37° C.)
[7] = 1 Month HHC (approximately 40° C. and 85 percent relative humidity)
[8] = Initial (average of three determinations)

**Q.** Which “flocculation and sedimentation rate” value [1] does the source give for `COc1ccc(C[C@@H](C)NC[C@H](O)c2ccc(O)c(NC=O)c2)cc1.COc1ccc(C[C@@H](C)NC[C@H](O)c2ccc(O)c(NC=O)c2)cc1.O=C(O)/C=C/C(=O)O` [Formoterol fumarate] here?
**A.** Its value is “reduced flocculation and a slower sedimentation rate”.

**Q.** And the “% Stem/Adapter” value ([2]; 1 Month (25° C.))?
**A.** The value was 52.0% and 52.5%.

**Q.** What about the “%Stage 1” value ([2]; 1 Month (25° C.)) of the same molecule?
**A.** Its value is 16.7% and 23.9%.

**Q.** And the “%Stage 2” value ([2]; 1 Month (25° C.))?
**A.** The value was 31.3% and 23.6%.

**Q.** What about the “% Stem/Adapter” value ([2]; 1 Month (CYC)) of the same molecule?
**A.** The value was 16.8% and 24.6%.

**Q.** And the “%Stage 1” value ([2]; 1 Month (CYC))?
**A.** The value was 53.6% and 47.6%.

**Q.** And the “%Stage 2” value ([2]; 1 Month (CYC))?
**A.** The value was 29.7% and 27.8%.

**Q.** What about the “%Stage 1” value ([2]; 1 Month (HHC)) of the same molecule?
**A.** The value was 37.0% and 60.4%.

**Q.** And the “%Stage 2” value ([2]; 1 Month (HHC))?
**A.** Its value is 29.0% and 24.3%.

**Q.** What about the “% Stem/Adapter” value ([2]; Initial) of the same molecule?
**A.** Its value is 26.0% and 24.7% and 28.5%.

**Q.** And the “%Stage 1” value ([2]; Initial)?
**A.** The value was 37.5% and 35.3% and 36.7%.

**Q.** What about the “%Stage 2” value ([2]; Initial) of the same molecule?
**A.** The value was 36.5% and 40.0% and 34.8%.

**Q.** What about the “visual assessment of formulation” value ([3]; Example 1: drug concentration 0.017 % in HFC 134a alone) of the same molecule?
**A.** The value was “+”.

**Q.** And the “visual assessment of formulation” value ([3]; Example 1: drug concentration 0.039 % in HFC 134a alone)?
**A.** Its value is “?”.

**Q.** What about the “visual assessment of formulation” value ([3]; Example 1: drug concentration 0.083 % in HFC 134a alone) of the same molecule?
**A.** The value was “?”.

**Q.** What about the “visual assessment of formulation” value ([3]; Example 1: drug concentration 0.41 % in HFC 134a alone) of the same molecule?
**A.** Its value is “−”.

**Q.** And the “visual assessment of formulation” value ([3]; Example 1: drug concentration 1.63 % in HFC 134a alone)?
**A.** The value was “+”.

**Q.** And the “Assessment (visual)” value ([4]; Example 3: drug concentration 0.015 % in 1:1 HFC 134a/HFC 227)?
**A.** Its value is “+”.

**Q.** And the “Assessment (visual)” value ([4]; Example 3: drug concentration 0.038 % in 1:1 HFC 134a/HFC 227)?
**A.** The value was “+”.

**Q.** What about the “Assessment (visual)” value ([4]; Example 3: drug concentration 0.076 % in 1:1 HFC 134a/HFC 227) of the same molecule?
**A.** Its value is “?”.

**Q.** What about the “Assessment (visual)” value ([4]; Example 3: drug concentration 0.38 % in 1:1 HFC 134a/HFC 227) of the same molecule?
**A.** Its value is “?”.

**Q.** What about the “Assessment (visual)” value ([4]; Example 3: drug concentration 1.5 % in 1:1 HFC 134a/HFC 227) of the same molecule?
**A.** Its value is “+”.

**Q.** What about the “particles with particle size <1.95 μm” value [5, 6] of the same molecule?
**A.** Its value is 36.1 Percent by weight and 32.5 Percent by weight.

**Q.** And the “particles with particle size <5.07 μm” value [5, 6]?
**A.** Its value is 92.9 Percent by weight and 92.5 Percent by weight.

**Q.** What about the “particles with particle size <10.7 μm” value [5, 6] of the same molecule?
**A.** Its value is 99.8 Percent by weight.

**Q.** What about the “particles with particle size <1.95 μm” value [5, 7] of the same molecule?
**A.** The value was 33.5 Percent by weight and 34.9 Percent by weight.

**Q.** And the “particles with particle size <5.07 μm” value [5, 7]?
**A.** Its value is 93.1 Percent by weight and 92.4 Percent by weight.

**Q.** What about the “particles with particle size <10.7 μm” value [5, 7] of the same molecule?
**A.** The value was 99.8 Percent by weight and 99.7 Percent by weight.

**Q.** And the “particles with particle size <1.95 μm” value ([5]; 1 Month stored at 25° C.)?
**A.** Its value is 36.3 Percent by weight and 31.7 Percent by weight.

**Q.** And the “particles with particle size <5.07 μm” value ([5]; 1 Month stored at 25° C.)?
**A.** The value was 93.6 Percent by weight and 94.8 Percent by weight.

**Q.** What about the “particles with particle size <10.7 μm” value ([5]; 1 Month stored at 25° C.) of the same molecule?
**A.** Its value is 99.8 Percent by weight and 99.9 Percent by weight.

**Q.** What about the “particles with particle size <1.95 μm” value [5, 8] of the same molecule?
**A.** Its value is 32.2 Percent by weight and 30.5 Percent by weight.

**Q.** What about the “particles with particle size <5.07 μm” value [5, 8] of the same molecule?
**A.** Its value is 93.4 Percent by weight and 92.6 Percent by weight.

**Q.** And the “particles with particle size <10.7 μm” value [5, 8]?
**A.** The value was 99.6 Percent by weight and 98.0 Percent by weight.
